According to patent publication US20100099198A1 (priority 2008, published 2010):

Molecular target: (WT)7 αHL protein pore (Staphylococcus aureus, UniProt P09616)
Settings: pH 7.5

Sequence of (WT)7 αHL protein pore (P09616 27-319 limits assumed): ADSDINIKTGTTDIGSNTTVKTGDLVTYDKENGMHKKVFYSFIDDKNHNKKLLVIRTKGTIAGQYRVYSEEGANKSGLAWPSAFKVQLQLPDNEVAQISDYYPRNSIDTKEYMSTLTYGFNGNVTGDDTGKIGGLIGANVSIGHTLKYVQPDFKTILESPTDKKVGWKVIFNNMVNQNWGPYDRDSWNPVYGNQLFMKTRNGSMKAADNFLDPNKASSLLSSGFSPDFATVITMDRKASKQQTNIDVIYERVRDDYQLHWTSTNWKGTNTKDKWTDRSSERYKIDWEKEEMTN

Y-Y-Y-Y-Y-Y [Y6] was tested, and the dwell time was 1.2 ms.
